Laboratory results from ChEMBL document CHEMBL4507263, “Data for DCP probe BAY-474” (2021).
The source made the active and inactive calls. The rule behind the calls is not given here.

How the values were obtained:
[1] = target: 5-hydroxytryptamine receptor 3A (Homo sapiens) (UniProt P46098); conditions: Compound concentration 10.0 uM
[2] = target: Muscarinic acetylcholine receptor M3 (Homo sapiens) (UniProt P20309); conditions: Compound concentration 10.0 uM
[3] = target: T1, Muscarinic acetylcholine receptor M2 (Homo sapiens) (UniProt P08172); conditions: Compound concentration 10.0 uM
T1 sequence (whole entry): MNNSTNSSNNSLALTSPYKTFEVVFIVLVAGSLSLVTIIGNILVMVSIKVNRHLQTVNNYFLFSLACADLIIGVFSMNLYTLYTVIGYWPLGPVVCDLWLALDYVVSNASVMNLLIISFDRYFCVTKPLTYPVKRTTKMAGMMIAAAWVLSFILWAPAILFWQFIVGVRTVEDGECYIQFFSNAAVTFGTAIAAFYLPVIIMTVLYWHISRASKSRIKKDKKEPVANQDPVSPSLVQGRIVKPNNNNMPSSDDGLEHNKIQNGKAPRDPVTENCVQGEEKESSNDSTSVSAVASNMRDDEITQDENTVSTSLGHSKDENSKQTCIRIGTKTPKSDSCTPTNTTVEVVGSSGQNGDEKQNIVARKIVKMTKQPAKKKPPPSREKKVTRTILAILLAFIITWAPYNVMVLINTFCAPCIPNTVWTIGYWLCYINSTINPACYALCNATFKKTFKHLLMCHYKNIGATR

[4] = target: Alpha-1B adrenergic receptor (Homo sapiens) (UniProt P35368); conditions: Compound concentration 10.0 uM
Alpha-1B adrenergic receptor (Homo sapiens), sequence (P35368 whole entry): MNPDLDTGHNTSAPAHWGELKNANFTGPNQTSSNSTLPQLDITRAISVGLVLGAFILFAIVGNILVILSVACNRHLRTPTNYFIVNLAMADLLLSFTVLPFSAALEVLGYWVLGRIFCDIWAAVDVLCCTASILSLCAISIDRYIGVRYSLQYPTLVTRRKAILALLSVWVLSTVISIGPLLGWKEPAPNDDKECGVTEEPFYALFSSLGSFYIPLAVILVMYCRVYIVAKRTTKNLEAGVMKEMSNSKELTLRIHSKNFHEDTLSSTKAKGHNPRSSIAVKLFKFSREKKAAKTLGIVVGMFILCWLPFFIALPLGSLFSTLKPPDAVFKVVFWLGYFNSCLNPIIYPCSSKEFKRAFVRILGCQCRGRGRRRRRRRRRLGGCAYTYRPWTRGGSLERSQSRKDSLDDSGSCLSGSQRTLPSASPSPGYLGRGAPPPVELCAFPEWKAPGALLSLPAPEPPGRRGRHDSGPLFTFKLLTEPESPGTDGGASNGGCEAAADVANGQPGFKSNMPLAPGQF

[5] = target: 5-hydroxytryptamine receptor 6 (Homo sapiens, UniProt P50406); conditions: Compound concentration 10.0 uM
5-hydroxytryptamine receptor 6, sequence (P50406 whole entry): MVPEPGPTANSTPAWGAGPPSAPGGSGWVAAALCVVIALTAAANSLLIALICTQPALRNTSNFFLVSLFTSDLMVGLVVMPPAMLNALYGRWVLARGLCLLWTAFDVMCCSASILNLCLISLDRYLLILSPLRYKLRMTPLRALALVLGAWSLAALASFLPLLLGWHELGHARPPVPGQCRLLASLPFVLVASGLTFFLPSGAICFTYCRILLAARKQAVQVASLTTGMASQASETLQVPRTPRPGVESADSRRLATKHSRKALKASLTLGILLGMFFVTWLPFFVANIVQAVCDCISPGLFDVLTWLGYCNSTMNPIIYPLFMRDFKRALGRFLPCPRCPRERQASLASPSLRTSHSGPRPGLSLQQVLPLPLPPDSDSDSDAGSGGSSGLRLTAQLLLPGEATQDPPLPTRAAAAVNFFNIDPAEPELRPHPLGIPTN

[6] = target: Alpha-2B adrenergic receptor (Homo sapiens) (UniProt P18089); conditions: Compound concentration 10.0 uM
[7] = target: Alpha-2A adrenergic receptor (Homo sapiens) (UniProt P08913); conditions: Compound concentration 10.0 uM
Alpha-2A adrenergic receptor (Homo sapiens), sequence (P08913 whole entry): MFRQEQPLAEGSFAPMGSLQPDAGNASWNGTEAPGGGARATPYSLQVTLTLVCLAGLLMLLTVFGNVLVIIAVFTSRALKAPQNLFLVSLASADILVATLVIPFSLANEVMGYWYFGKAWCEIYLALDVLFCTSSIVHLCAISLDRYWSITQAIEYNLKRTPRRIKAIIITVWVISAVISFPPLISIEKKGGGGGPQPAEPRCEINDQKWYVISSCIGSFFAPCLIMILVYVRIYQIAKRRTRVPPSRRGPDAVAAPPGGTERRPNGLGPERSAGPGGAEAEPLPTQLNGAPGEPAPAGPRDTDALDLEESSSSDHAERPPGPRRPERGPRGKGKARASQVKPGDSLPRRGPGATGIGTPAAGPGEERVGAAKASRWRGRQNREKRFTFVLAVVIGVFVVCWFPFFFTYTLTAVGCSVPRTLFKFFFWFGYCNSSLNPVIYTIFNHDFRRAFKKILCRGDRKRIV

[8] = target: Delta-type opioid receptor (Homo sapiens) (UniProt P41143); conditions: Compound concentration 10.0 uM
[9] = target: Mu-type opioid receptor (Homo sapiens) (UniProt P35372); conditions: Compound concentration 10.0 uM
[10] = target: Alpha-2C adrenergic receptor (Homo sapiens) (UniProt P18825); conditions: Compound concentration 10.0 uM
[11] = target: Sigma non-opioid intracellular receptor 1 (Homo sapiens) (UniProt Q99720); conditions: Compound concentration 10.0 uM
Sigma non-opioid intracellular receptor 1 (Homo sapiens), sequence (Q99720 whole entry): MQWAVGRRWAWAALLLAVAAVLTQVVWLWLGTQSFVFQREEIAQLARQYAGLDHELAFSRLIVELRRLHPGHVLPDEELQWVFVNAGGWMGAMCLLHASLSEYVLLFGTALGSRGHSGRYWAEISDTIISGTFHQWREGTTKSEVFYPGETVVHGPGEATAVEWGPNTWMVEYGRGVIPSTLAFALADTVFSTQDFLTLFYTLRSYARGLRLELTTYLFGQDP

[12] = target: D(2) dopamine receptor (Homo sapiens) (UniProt P14416); conditions: Compound concentration 10.0 uM
[13] = target: Histamine H2 receptor (Homo sapiens) (UniProt P25021); conditions: Compound concentration 10.0 uM
Histamine H2 receptor (Homo sapiens), sequence (P25021 whole entry): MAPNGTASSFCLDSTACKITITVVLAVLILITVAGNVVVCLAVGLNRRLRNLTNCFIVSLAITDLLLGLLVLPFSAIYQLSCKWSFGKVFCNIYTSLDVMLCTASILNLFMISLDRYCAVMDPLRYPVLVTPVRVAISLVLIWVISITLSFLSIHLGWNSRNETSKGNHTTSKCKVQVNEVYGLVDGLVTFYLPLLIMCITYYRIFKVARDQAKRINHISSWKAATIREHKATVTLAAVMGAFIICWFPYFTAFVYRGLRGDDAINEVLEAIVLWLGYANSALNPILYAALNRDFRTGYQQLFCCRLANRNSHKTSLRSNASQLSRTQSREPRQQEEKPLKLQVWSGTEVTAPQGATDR

[14] = target: 5-hydroxytryptamine receptor 1E (Homo sapiens) (UniProt P28566); conditions: Compound concentration 10.0 uM
[15] = target: Beta-3 adrenergic receptor (Homo sapiens) (UniProt P13945); conditions: Compound concentration 10.0 uM
[16] = target: 5-hydroxytryptamine receptor 1B (Homo sapiens) (UniProt P28222); conditions: Compound concentration 10.0 uM
5-hydroxytryptamine receptor 1B (Homo sapiens), sequence (P28222 whole entry): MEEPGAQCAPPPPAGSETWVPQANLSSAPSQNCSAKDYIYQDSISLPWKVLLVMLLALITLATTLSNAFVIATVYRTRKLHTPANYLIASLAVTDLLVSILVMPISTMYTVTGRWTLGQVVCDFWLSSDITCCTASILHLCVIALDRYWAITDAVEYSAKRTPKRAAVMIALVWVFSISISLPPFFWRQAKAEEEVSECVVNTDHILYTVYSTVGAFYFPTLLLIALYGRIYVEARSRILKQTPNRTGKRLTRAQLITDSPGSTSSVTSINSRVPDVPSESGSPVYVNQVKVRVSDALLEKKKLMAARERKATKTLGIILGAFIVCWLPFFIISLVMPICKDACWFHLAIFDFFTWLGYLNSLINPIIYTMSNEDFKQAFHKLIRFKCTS

[17] = target: Muscarinic acetylcholine receptor M5 (Homo sapiens) (UniProt P08912); conditions: Compound concentration 10.0 uM
Muscarinic acetylcholine receptor M5 (Homo sapiens), sequence (P08912 whole entry): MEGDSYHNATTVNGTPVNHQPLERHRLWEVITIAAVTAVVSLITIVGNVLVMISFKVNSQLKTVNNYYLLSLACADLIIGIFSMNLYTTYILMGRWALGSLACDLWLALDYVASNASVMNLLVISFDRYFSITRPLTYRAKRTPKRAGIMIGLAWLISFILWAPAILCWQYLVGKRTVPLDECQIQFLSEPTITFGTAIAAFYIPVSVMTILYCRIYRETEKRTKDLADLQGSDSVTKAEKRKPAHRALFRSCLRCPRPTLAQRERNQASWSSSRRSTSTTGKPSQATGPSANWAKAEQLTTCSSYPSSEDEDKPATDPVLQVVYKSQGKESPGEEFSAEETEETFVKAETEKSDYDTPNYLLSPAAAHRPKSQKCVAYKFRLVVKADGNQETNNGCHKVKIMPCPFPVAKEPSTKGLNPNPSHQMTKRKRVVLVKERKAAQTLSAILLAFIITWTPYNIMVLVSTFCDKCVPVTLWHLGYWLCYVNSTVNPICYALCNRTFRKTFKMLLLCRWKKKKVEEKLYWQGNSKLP

[18] = target: Hepatocyte growth factor receptor (Homo sapiens, UniProt P08581); assay: Homogeneous Time Resolved Fluorescence Assay
[19] = target: T2, Muscarinic acetylcholine receptor M1 (Homo sapiens) (UniProt P11229); conditions: Compound concentration 10.0 uM
T2 sequence (whole entry): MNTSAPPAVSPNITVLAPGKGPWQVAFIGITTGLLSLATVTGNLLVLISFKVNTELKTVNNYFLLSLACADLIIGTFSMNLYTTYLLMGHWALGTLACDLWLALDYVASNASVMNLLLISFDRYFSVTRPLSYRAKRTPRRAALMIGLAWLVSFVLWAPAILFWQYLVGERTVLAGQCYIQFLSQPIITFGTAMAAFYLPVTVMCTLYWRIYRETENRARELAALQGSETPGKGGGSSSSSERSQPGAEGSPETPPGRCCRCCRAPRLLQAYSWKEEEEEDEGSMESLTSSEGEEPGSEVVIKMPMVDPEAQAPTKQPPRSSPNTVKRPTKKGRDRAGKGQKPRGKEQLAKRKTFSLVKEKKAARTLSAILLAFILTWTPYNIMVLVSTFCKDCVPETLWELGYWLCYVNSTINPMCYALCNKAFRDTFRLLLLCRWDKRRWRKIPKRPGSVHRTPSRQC

[20] = target: Beta-2 adrenergic receptor (Homo sapiens) (UniProt P07550); conditions: Compound concentration 10.0 uM
[21] = target: T3, 5-hydroxytryptamine receptor 1A (Homo sapiens) (UniProt P08908); conditions: Compound concentration 10.0 uM
T3 sequence (whole entry): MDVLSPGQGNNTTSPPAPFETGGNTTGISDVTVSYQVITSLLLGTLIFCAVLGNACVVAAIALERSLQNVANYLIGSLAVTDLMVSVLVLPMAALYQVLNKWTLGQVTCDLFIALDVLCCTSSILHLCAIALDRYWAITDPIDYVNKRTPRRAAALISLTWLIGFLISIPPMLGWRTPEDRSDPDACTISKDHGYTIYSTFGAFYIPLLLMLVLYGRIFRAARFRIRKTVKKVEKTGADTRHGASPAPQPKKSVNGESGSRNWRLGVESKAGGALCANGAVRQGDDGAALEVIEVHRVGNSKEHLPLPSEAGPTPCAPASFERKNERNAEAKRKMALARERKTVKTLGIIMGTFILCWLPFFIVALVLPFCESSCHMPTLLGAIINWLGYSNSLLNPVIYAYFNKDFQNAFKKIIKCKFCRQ

[22] = target: Sigma intracellular receptor 2 (Homo sapiens) (UniProt Q5BJF2); conditions: Compound concentration 10.0 uM
Sigma intracellular receptor 2 (Homo sapiens), sequence (Q5BJF2 whole entry): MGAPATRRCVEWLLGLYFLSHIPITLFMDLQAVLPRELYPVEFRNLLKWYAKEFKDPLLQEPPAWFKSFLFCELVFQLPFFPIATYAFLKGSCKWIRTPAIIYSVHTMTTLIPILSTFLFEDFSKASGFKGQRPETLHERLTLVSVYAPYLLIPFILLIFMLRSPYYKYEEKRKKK

[23] = target: 5-hydroxytryptamine receptor 2C (Homo sapiens) (UniProt P28335); conditions: Compound concentration 10.0 uM
5-hydroxytryptamine receptor 2C (Homo sapiens), sequence (P28335 whole entry): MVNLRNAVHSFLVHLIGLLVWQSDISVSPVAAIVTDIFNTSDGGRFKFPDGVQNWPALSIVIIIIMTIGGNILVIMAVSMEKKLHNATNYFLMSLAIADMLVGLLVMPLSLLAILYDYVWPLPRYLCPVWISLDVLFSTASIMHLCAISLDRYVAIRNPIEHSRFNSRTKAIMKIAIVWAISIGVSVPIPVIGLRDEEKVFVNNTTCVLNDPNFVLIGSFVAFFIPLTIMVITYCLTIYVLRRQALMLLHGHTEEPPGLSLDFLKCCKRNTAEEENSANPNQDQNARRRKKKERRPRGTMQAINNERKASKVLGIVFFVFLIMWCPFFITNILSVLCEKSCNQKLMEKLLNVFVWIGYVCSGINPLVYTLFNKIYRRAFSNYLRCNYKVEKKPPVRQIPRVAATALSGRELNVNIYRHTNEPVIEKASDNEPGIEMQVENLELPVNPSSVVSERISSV

[24] = target: D(1A) dopamine receptor (Homo sapiens) (UniProt P21728); conditions: Compound concentration 10.0 uM
[25] = target: 5-hydroxytryptamine receptor 7 (Homo sapiens) (UniProt P34969); conditions: Compound concentration 10.0 uM
5-hydroxytryptamine receptor 7 (Homo sapiens), sequence (P34969 whole entry): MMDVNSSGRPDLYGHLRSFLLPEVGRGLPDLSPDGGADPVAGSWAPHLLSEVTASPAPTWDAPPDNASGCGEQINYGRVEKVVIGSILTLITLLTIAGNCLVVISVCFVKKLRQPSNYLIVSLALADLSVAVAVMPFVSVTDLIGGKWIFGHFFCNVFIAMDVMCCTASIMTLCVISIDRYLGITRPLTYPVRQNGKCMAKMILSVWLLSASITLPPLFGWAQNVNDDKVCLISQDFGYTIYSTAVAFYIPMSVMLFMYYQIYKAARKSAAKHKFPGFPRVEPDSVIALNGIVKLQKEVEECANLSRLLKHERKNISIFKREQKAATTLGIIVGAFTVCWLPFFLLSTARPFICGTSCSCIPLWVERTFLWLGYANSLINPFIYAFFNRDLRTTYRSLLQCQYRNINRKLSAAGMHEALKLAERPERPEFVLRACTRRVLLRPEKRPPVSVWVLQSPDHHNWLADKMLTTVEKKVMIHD

Muscarinic acetylcholine receptor M3 (Homo sapiens), sequence (P20309 whole entry, looked up): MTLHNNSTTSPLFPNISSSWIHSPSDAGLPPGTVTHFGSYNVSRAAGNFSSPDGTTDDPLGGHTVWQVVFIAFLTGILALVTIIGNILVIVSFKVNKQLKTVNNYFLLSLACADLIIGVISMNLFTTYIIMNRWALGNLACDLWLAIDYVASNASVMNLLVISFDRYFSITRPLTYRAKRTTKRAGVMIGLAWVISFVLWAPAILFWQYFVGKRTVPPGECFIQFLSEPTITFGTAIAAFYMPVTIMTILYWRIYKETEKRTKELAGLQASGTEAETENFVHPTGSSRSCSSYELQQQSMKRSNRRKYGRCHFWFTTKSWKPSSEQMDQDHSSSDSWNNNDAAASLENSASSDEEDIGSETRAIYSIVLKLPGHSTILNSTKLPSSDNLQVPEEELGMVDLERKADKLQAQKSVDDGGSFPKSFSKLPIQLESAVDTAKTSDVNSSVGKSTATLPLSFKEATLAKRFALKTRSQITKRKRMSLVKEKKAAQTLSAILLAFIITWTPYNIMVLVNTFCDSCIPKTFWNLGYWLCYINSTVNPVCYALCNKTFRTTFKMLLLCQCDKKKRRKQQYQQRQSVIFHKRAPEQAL

Row | Compound | inhibition [1] [%] | inhibition [2] [%] | inhibition [3] [%] | inhibition [4] [%] | inhibition [5] [%] | inhibition [6] [%] | inhibition [7] [%] | inhibition [8] [%] | inhibition [9] [%] | inhibition [10] [%] | inhibition [11] [%] | inhibition [12] [%] | inhibition [13] [%] | inhibition [14] [%] | inhibition [15] [%] | inhibition [16] [%] | inhibition [17] [%] | IC50 [18] | inhibition [19] [%] | inhibition [20] [%] | also measured
1 | CC1=C(C#N)C(c2ccc3[nH]nc(C)c3c2)C(C#N)=C(C)N1 [BAY-474] | 33 | -1.54 | -8.64 | 1.79 | 20.7 | 8.04 | -3.48 | 16.9 | 2.64 | -4.65 | -9.08 | -7.07 | 12.6 | 8.21 | 21.1 | 0.48 | 5.48 | < 0.001 µM (active) | 13.9 | 20.2 | inhibition [21]: -5.32%; inhibition [22]: 23.9%; inhibition [23]: 22.4%; inhibition [24]: 6.92%; inhibition [25]: -0.97%
2 | CC1=C(C#N)[C@@H](c2ccc3[nH]nc(C)c3c2)C(C#N)=C(c2ccc(Cl)cc2)N1 [BAY-827] | 2.6 | 8.81 | 18.8 | 21.7 | 55.7 | 4.71 | 7.83 | 33.4 | -0.0207 | -1.57 | 14.6 | 10.6 | 14.1 | -3.84 | 24.3 | 17.2 | 9.95 | 11 µM (not active) | 8.17 | -0.813 | inhibition [21]: 2.67%; inhibition [22]: 23.4%; inhibition [23]: 71.8%; inhibition [24]: 6.7%; inhibition [25]: 8.19%
